Measurements reported in patent US20240316059A1, “PEPTIDE DRUG CONJUGATES” (Oncopeptides AB, priority 2021, published 2024).
Read-outs that look alike come from different tables or passages of the source.

Assays:
MM.1S cells [1] = test: In vitro cytotoxic potency in MM.1S cell viability assay (CellTiter-Glo); format: cell-based, human; conditions: Homo sapiens, MM1.S, 72 h
How it was run: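 Log-phase MM.1S cells in supplemented RPMI 1640 were seeded at 100000 cells/mL with compound (0.2% DMSO final). After 72 h at 37 °C in CO2, viability was measured by CellTiter-Glo 2.0 luminescence.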

KMS-12-BM = test: In vitro cytotoxicity, KMS-12-BM (Multiple Myeloma); format: cell-based; conditions: Homo sapiens, 72 h, read-out: Cytotoxicity IC50, KMS-12-BM
Description: (§1) All cells were cultivated in RPMI medium 1640 (IX). All media was supplemented with 10 μg/μl penicillin/streptomycin, 10% heat inactivated FBS, 0.1 mM Sodium Pyruvate, 1×MEM NEAA (ThermoFisher) and 1 mM HEPES. The DERL-2 cells had higher FBS (20%) and 40 ng/mL IL-2 was added. hPBMCs were thawed and allowed to acclimatise overnight and then stimulated with 10 μg/mL PHA-M and 40 ng/mL IL-2 for 4 hours before being exposed to test compounds. All cells, except for hPBMCs, were grown to reach log phase before being exposed to the test compounds.
(§2) Test compounds were dissolved in 100% DMSO and added to a 384 assay plate. Additional DMSO was added to maintain the same final DMSO concentration (0.2%) in all wells. 25 μL cell suspension with a concentration of 100000 cells/mL was added to each well. The cells were cultured in a CO2 incubator at 37° C. for 72 h. Plates were equilibrated to room temperature for 30 minutes before adding 20 μL CellTiter-Glo® 2.0 (Promega) reagent to all wells. The plate was then allowed to stabilize for 20 minutes before recording the luminescence (Em filter 700 nm) in an Envision plate reader.

HG-3 = test: In vitro cytotoxicity, HG-3 (Chronic Lymphocytic Leukemia); format: cell-based; conditions: Homo sapiens, HG-3, 72 h, read-out: Cytotoxicity IC50, HG-3
Description: as §1, §2

EJM = test: In vitro cytotoxicity, EJM (Multiple Myeloma); format: cell-based; conditions: Homo sapiens, 72 h, read-out: Cytotoxicity IC50, EJM
Description: as §1, §2

THP-1 = test: In vitro cytotoxicity, THP-1 (Acute Myeloid Leukemia); format: cell-based; conditions: Homo sapiens, THP-1, 72 h, read-out: Cytotoxicity IC50, THP-1
Description: as §1, §2

MM.1S cells [2] = test: Cellular retention/efflux: intracellular and extracellular concentrations by LC-MS/MS; format: in vitro ADME, human
Description: Methods: MMA1S cells at 2×10^6 cells/mL were seeded at 250 μL per well in a 96-well plate. Cells were incubated in the presence of a test compound for 5, 15, and 60 min before pelleting cells by centrifugation at +4° C. for 5 min. Cell media was immediately harvested to a second plate and stored at −80° C. until further analysis. Pelleted cells were washed once with ice cold PBS before storage at −80° C. until further analysis.
Cells were lysed and protein in the media were precipitated using acetonitrile dimethylformamide, 9:1 containing internal standard. Samples were centrifuged and the supernatant was analyzed with LC-MS/MS (ACQUITY UPLC-Xevo TQ-S micro) to determine compound concentration.
Example compound 1, bendamustine and melphalan were used as test compounds.
Method: Method described in Biological example 3.
Example compounds 1, 2, 3, 4, 6, 7 and 10 were investigated. Intracellular metabolites are formed from all compounds tested. The compound used for cell treatment was metabolised to the ester-hydrolysed compound (here called Metabolite A) and to the amide-hydrolysed compound (called Metabolite B). The example compound structures and the structures of the two metabolites for the respective compounds were as shown in Table 4. The Metabolites B formed under the conditions tested were compounds with structure as Examples 17 and 18: […]

[3] = read-out: Cytotoxicity IC50, MM.1S

Compound	IC50 (MM.1S cells [1]; [3])	IC50 (MM.1S cells [1]; read-out: MM.1S IC50)	IC50 (KMS-12-BM)	IC50 (HG-3)	IC50 (EJM)	IC50 (THP-1)	Intracellular concentration (in words) (MM.1S cells [2]; MM.1S cells incubated with test compound 5, 15, 60 min, metabolites measured after treatment with the parent Example compound)	Extracellular concentration (in words) (MM.1S cells [2]; media of MM.1S cells incubated with test compound 5, 15, 60 min, metabolites measured after treatment with the parent Example compound)	Intracellular hydrolysis / formation of metabolites (MM.1S cells [2]; MM.1S cells, 5, 15, 60 min)
Cn1c(CCCC(=O)O)nc2cc(N(CCCl)CCCl)ccc21 [Bendamustine, bendamustine, reference compound]	24 µM	24 µM	27.5 µM	25.8 µM	64.6 µM	40.2 µM	Low intracellular concentrations	quite high and decreased overtime	
CCOC(=O)[C@H](CC(C)C)NC(=O)[C@@H](N)CCc1nc2cc(N(CCCl)CCCl)ccc2n1C [Example 1, Ethyl (2S)-2-[[(2S)-2-amino-4-[5-[bis(2-chloroethyl)amino]-1-methyl-benzimidazol-2-yl]butanoyl]amino]-4-methyl-pentanoate]	0.0068 µM	0.0068 µM	0.0079 µM	0.0257 µM	0.0271 µM	0.016 µM			hydrolysis of Example compound 1 took place inside the cells
